Converted amounts (≈) assume the structure as drawn. Read-outs that look alike come from different tables or passages of the source.
Columns and labels:
Assay type in all cases: cell-based
Aspergillus Flavus [1] = assay: Antifungal screening, well diffusion method; settings: 35° C. for 7 days
Method: Antifungal activities of the prepared nano-complex were studied against three fungal cultures using well diffusion method. The tested fungi were inoculated in Sabouraud dextrose broth medium (Hi-Media Mumbai) and incubated at 35° C. for 72 h and subsequently a suspension of about 1.60×10^4-6.00×10^4 c.f.u/ml was introduced agar plates and a sterile glass spreader was used for even distribution of the inoculum. The discs measuring 6 mm in diameter were prepared from Whatman No. 1 filter paper and sterilized by dry heat at 140° C. for 1 h. The sterile discs previously soaked in known concentration of the tested compounds were placed in Sabouraud dextrose Agar (SDA) plates. The plates were inverted and incubated at 35° C. for 7 days. The susceptibility was assessed on the basis of diameter of inhibition against albicans and non-albicans strain of fungi.

Aspergillus Flavus [2] = assay: Minimum inhibitory concentration, serial broth dilution (fungus)
Method: (§1) Minimum inhibitory concentrations (MICs) are defined as the lowest concentration of an antimicrobial that will inhibit the visible growth of a microorganism after overnight incubation. MICs are used by diagnostic laboratories mainly to confirm resistance of microorganism to antimicrobial agents and also to monitor the activity of new antimicrobial agents. MIC was determined in vitro in liquid medium by serial broth dilution method.

Pseudomonas aeruginosa [3] = assay: Antibacterial screening, agar well diffusion method; settings: 24 hours at 37° C.
Method: The susceptibilities of such growth rate of microorganisms were measured in vitro by agar well diffusion method. The tested nano complex was dissolved in dimethylsulfoxide at different concentrations (10 and 20 mg/ml). 1 cm^3 of a 24 h broth culture containing 10^6 CFU/cm^3 was placed in sterile Petri-dishes. Molten nutrient agar (15 cm^3) maintained at 45° C. was then poured into the Petri-dishes and allowed to solidify. Then holes of 6 mm diameter were formed in the agar using a sterile cork borer and these holes were completely filled with the test solutions. The plates were incubated for 24 hours at 37° C. After the incubation period, the zone of inhibition of each well was determined by measuring the zones of growth inhibition (mm) against the test microorganisms with zone reader (Hi Antibiotic zone scale). […] The measurements were made in triplicate for each compound and their average values are reported.

Pseudomonas aeruginosa [4] = assay: Minimum inhibitory concentration, serial broth dilution (bacteria)
Method: as §1

Colon cancer cells line = assay: Cytotoxic activity, Sulfo-Rhodamine-B-stain (SRB) assay; settings: colon cancer cell line, 48 hrs
Method: The anticancer activity was made at the National Cancer Institute, Cancer Biology Department, Pharmacology Department, Cairo University. The absorbance or optical density (O.D.) of each well was measured spectrophotometrically at 564 (nm) with an “ELIZA” micro plate reader (Meter tech. Σ 960, “USA”). Evaluation of the cytotoxic activity of the prepared nano-complex was carried out against Colon cancer cells line. The evaluation process was carried out in vitro using the Sulfo-Rhodamine-B-stain (SRB). Cells were placed in 96-multiwell plate (10^4 cells/well) for 24 hrs before processing with the complexes to allow attachment of cell to the wall of the plate. Various concentrations of the compounds under test in DMSO (0, 1, 2.5, 5 and 10 µM) were added to the cell monolayer. Monolayer cells were incubated with the complexes for 48 hrs at 37° C. and in atmosphere of 5% CO2. After 48 hrs, cells were fixed, rinsed, and stained with Sulfo-Rhodamine-B-stain. Excess stain was washed with acetic acid and attached stain was treated with Tris EDTA buffer. Color intensity was measured in an ELISA reader. IC50 was evaluated and potency was calculated with regard to percentage of change of (vistabline standard). The relation between surviving fraction and compound concentration is plotted to get the survival curve of each tumor cell line after the specified compound. […]

**Q.** OC(Cn1cncn1)(Cn1cncn1)c1ccc(F)cc1F [Flucazanol] was tested. Which inhibition zone (Aspergillus Flavus [1]) did it give?
**A.** The inhibition zone was 27 mm.

**Q.** What about the MIC (Aspergillus Flavus [2]) of the same compound?
**A.** Its MIC is 2.50 µg/mL (≈ 8.16 µM).

**Q.** What does the source list for CC1COc2c(N3CCN(C)CC3)c(F)cc3c(=O)c(C(=O)O)cn1c23 (stereo not drawn) [Ofloxacin]?
**A.** inhibition zone (Pseudomonas aeruginosa [3]): 38 mm; MIC (Pseudomonas aeruginosa [4]; read-out: MIC): 2.25 µg/mL (≈ 6.23 µM)

**Q.** For CC[C@]1(O)C[C@@H]2CN(CCc3c([nH]c4ccccc34)[C@@](C(=O)OC)(c3cc4c(cc3OC)N(C)[C@H]3[C@@](O)(C(=O)OC)[C@H](OC(C)=O)[C@]5(CC)C=CCN6CC[C@]43[C@@H]65)C2)C1 [vinblastine], which IC50 (Colon cancer cells line) is on record?
**A.** Its IC50 is 5.7 µM.

**Q.** How did the inhibition zone (Pseudomonas aeruginosa [3]) turn out when “[4{3,4-bis-[(5-bromo-2-hydroxy-benzylidene)-amino]-phenyl}-phenyl-methanone] Ru(III) complex [prepared nano complex]” was run?
**A.** Its inhibition zone is 42 mm.

**Q.** What about the MIC (Pseudomonas aeruginosa [4]) of the same compound?
**A.** Its MIC is 1.5 µg/mL.

**Q.** What about the inhibition zone (Aspergillus Flavus [1]) of the same compound?
**A.** The inhibition zone was 30 mm.

**Q.** What about the MIC (Aspergillus Flavus [2]) of the same compound?
**A.** Its MIC is 2.00 µg/mL.
